Experimental data taken from patent US10172957B2, “Acid-labile lipophilic prodrugs of cancer chemotherapeutic agents” (priority 2011, dated 2019).

What was measured:
[1] = tested on: MES-SA/Dx5 doxorubicin-resistant subline (MDR+); assay: cells; format: cell-based, human; settings: for IC50: Homo sapiens, MES-SA/Dx5, read-out: IC50 MESSA/Dx5 (MDR + Hs); for Degree of resistance (MESSA/Dx5): IC50 of the resistant line divided by IC50 of sensitive MES-SA cells
Text: (§1) A second evaluation of the cytotoxicity of the acid labile, lipophilic molecular conjugates was undertaken.
(§2) These lines included a uterine sarcoma line, MES-SA, and its doxorubicin-resistant subline, MES-SA/Dx5. See W. G. Harker, F. R MacKintosh, and B. I. Sikic. Development and characterization of a human sarcoma cell line, MES-SA, sensitive to multiple drugs. Cancer Research 43: 4943-4950 (1983); W. G. Harker and B. I. Sikic. Multidrug (pleiotropic) resistance in doxorubicin-selected variants of the human sarcoma cell line MES-SA. Cancer Research 45: 4091 4096 (1985).
(§3) MES-SA/Dx5 cells express high levels of ABCB1 (MDR1) mRNA and its gene product, the P-glycoprotein. MES-SA and MES-SA/Dx5 were purchased from the American Type Culture Collection (ATCC, Manassas, Va.).

[2] = Stability in mouse plasma at 37° C.; format: in vitro ADME
Description: The stability of the acid labile, lipophilic molecular conjugates to hydrolysis in plasma was evaluated to determine their potential to release the active cancer chemotherapeutic agents into systemic circulation and thereby cause general off target toxicity (“side effects”). The conjugates were incubated with plasma of mouse, rat and human origin.
HPLC grade Methanol from Fisher (Fair lawn, NJ, USA). Part No: A452-4 (074833). HPLC grade Water from Fisher (Fair lawn, NJ, USA). Part No: W5-4 (073352). Drug-free mouse, rat and human plasmas were purchased from Innovative Research Inc. (Southfield, Mich., USA). LIPOSYN® I.V. (30% soybean oil and egg yolk phospholipids, Abbott Laboratories) Fat Emulsion from Hospira, Inc. (Lake Forest, Ill.).
Each drug (ART 198, ART 273, ART 488 and ART 489) was prepared in triplicate in mouse, rat and human plasma individually at […] concentration and vortexed for 1 minute and placed in a water bath at 37° C. at a shake rate of 75 per minute. Samples were drawn at time points of 0, 15, 30, 45, 60, 75, 90, 105, 120, 135, 150, 165, 180, 210, 240, 300, 360 and 480 minutes.
Chromatographic separation of the compounds was performed on a Waters Acquity UPLC™ using a BEH C18 column (1.7 μm, 2.1×50 mm). The mobile phase consisted of Methanol: 0.1% Formic acid (80:20). The flow rate was 0.3 ml/min; the sample injection volume was 5 μL, resulting in a 3 minute run time.
The MS instrumentation consisted of a Waters Micromass Quattro Micro™ triple-quadrupole system (Manchester, UK). The MS system was controlled by a 4.0 version of MassLynx software. Ionization was performed in the positive electrospray ionization mode. MS/MS conditions were the following: capillary voltage 3.02 kV; cone voltage 50 v; extractor voltage 5 v; and RF lens voltage 0.5 v. The source and desolvation temperatures were 100° C. and 400° C. respectively, and the desolvation and cone gas flow were 400 and 30 L/hr, respectively.
The selected mass-to-charge (m/z) ratio transitions of the ART 198 used in the selected ion monitoring (SIM) were: for ART 198, 617 (M+K)^+, for ART 273, 589 (M+K)^+, for ART 488, 913 (M+Na)^+, and for ART 489, 957 (M+Na)^+. The dwell time was set at 200 msec. MS conditions were optimized using direct infusion of standard solutions prepared in methanol and delivered by a syringe pump at a flow rate of 20 μL/min.
Samples of 100 μL were collected at time points of 0, 15, 30, 45, 60, 75, 90, 105, 120, 135, 150, 165, 180, 210, 240, 300, 360 and 480 minutes respectively and the reaction was terminated with methanol. In a separate set of experiments the acid labile, lipophilic molecular conjugates were dissolved in a small amount of ethanol and diluted into a lipid emulsion (Liposyn®) and added to mouse and human plasma before incubation and the hydrolysis of the conjugates was similarly measured. Collected plasma samples of 100 μL containing drug were placed in separate Eppendorf micro centrifuge tubes for processing. Methanol (200 μL) was added to extract the drug using the protein precipitation technique. The micro tubes were then vortex mixed for 10 minutes and centrifuged for 15 minutes at a speed of 10,000 rpm (Eppendorf 5415C centrifuge). The supernatant was collected and filtered using a 0.45 μm filter (Waters 13 mm GHP 0.45 μm) before analysis.
The weighted linear least-squares (1/x) regression was used as the mathematical model. The coefficient (r) for the compounds ranged from 0.9925 to 0.9999. The calibration range was selected according to the concentrations anticipated in the samples to be determined.
Samples were collected at various times and the percent remaining of the acid labile, lipophilic molecular conjugate of the cancer chemotherapeutic agent was determined along with the percent of the chemotherapeutic agent released from the hydrolysis of the conjugate.

[3] = Estimation of maximum tolerated dose (MTD) in the mouse; settings: in vivo, iv, mice, in lipid emulsion (INTRALIPID), survival for 30 day observation period
Description: Stock solutions of ART 198 and 273 and their respective acid labile, lipophilic molecular conjugates (ART 489 and ART 488, respectively) were prepared in ethanol and then diluted into a lipid emulsion (INTRALIPID®, 20% Soybean Oil, 1.2% egg yolk phospholipids, 2.25% glycerin and water) and injected intravenously into mice at various doses in milligrams per kilogram. The animals were observed daily for signs of toxicity and/or death for a period of 30 days. The MTD was defined as survival of the dosed mice for the full 30 day observation period.

[4] = tested on: MES-SA uterine sarcoma line; assay: MTT-based cytotoxicity assay, MES-SA; format: cell-based, human; settings: Homo sapiens, MES-SA, read-out: IC50 MESSA (Hs)
Text: as §1, §2, §3

CCCCCCCCCCCCCCCC1OCC(COC(=O)O[C@@H]2C(=O)C=C(C)[C@@H]3C[C@H]4OC(=O)C(OC(=O)CC(O)(C(C)C)C(C)C)C5[C@@H](C)[C@@H](O)[C@@]6(O)OC[C@@]54C6[C@@]23C)O1 (stereo partly drawn) [ART 488]
IC50 [1]: 7 ± 5.7 nM
Degree of resistance (MESSA/Dx5) [1]: 4.3 ± 1.8
percent remaining of initial drug ([2]; 0 min): 100%
percent remaining of initial drug ([2]; 15 min): 91.2%
percent remaining of initial drug ([2]; 30 min): 85.7%
percent remaining of initial drug ([2]; 45 min): 81.3%
percent remaining of initial drug ([2]; 60 min): 75.0%
percent remaining of initial drug ([2]; 75 min): 73.2%
percent remaining of initial drug ([2]; 90 min): 65.2%
percent remaining of initial drug ([2]; 105 min): 58.8%
percent remaining of initial drug ([2]; 120 min): 56.4%
percent remaining of initial drug ([2]; 135 min): 56.2%
percent remaining of initial drug ([2]; 150 min): 55.0%
percent remaining of initial drug ([2]; 165 min): 53.7%
percent remaining of initial drug ([2]; 180 min): 53.7%
percent remaining of initial drug ([2]; 210 min): 52.4%
percent remaining of initial drug ([2]; 240 min): 50.3%
percent remaining of initial drug ([2]; 300 min): 48.2%
percent remaining of initial drug ([2]; 360 min): 45.6%
MTD at 30 days [3]: 4 mg/kg
IC50 [4]: 1.5 ± 0.7 nM

CCCCCCCCCCCCCCCC1OCC(COC(=O)OC2=C(C)[C@@H]3C[C@H]4OC(=O)C(OC(=O)CC5(O)CCCCC5)[C@H]5[C@]6(C(=O)OC)OC[C@]45[C@H]([C@@H](O)[C@@H]6O)[C@@]3(C)CC2=O)O1 (stereo partly drawn) [ART 489]
IC50 [1]: 17 ± 5.7 nM
Degree of resistance (MESSA/Dx5) [1]: 4.3 ± 3.8
percent remaining of initial drug ([2]; 0 min): 100%
percent remaining of initial drug ([2]; 15 min): 95.7%
percent remaining of initial drug ([2]; 30 min): 88.6%
percent remaining of initial drug ([2]; 45 min): 84.8%
percent remaining of initial drug ([2]; 60 min): 79.2%
percent remaining of initial drug ([2]; 75 min): 78.1%
percent remaining of initial drug ([2]; 90 min): 70.1%
percent remaining of initial drug ([2]; 105 min): 68.0%
percent remaining of initial drug ([2]; 120 min): 64.1%
percent remaining of initial drug ([2]; 135 min): 63.2%
percent remaining of initial drug ([2]; 150 min): 59.4%
percent remaining of initial drug ([2]; 165 min): 54.7%
percent remaining of initial drug ([2]; 180 min): 51.6%
percent remaining of initial drug ([2]; 210 min): 50.3%
percent remaining of initial drug ([2]; 240 min): 47.5%
percent remaining of initial drug ([2]; 300 min): 41.1%
percent remaining of initial drug ([2]; 360 min): 38.1%
MTD at 30 days [3]: 3.1 mg/kg
IC50 [4]: 5.5 ± 3.5 nM

COC(=O)[C@@]12OC[C@]34[C@H]([C@@H](O)[C@@H]1O)[C@@]1(C)CC(=O)C(O)=C(C)[C@@H]1C[C@H]3OC(=O)C(OC(=O)CC1(O)CCCCC1)[C@@H]24 (stereo partly drawn) [ART 198]
IC50 [1]: 376 ± 110 nM
Degree of resistance (MESSA/Dx5) [1]: 7.9 ± 0.6
percent remaining of initial drug ([2]; 0 min): 100%
percent remaining of initial drug ([2]; 15 min): 96.8%
percent remaining of initial drug ([2]; 30 min): 94.0%
percent remaining of initial drug ([2]; 45 min): 85.5%
percent remaining of initial drug ([2]; 60 min): 82.0%
percent remaining of initial drug ([2]; 75 min): 72.6%
percent remaining of initial drug ([2]; 90 min): 66.9%
percent remaining of initial drug ([2]; 105 min): 63.2%
percent remaining of initial drug ([2]; 120 min): 59.2%
percent remaining of initial drug ([2]; 135 min): 57.4%
percent remaining of initial drug ([2]; 150 min): 51.9%
percent remaining of initial drug ([2]; 165 min): 46.2%
percent remaining of initial drug ([2]; 180 min): 43.0%
percent remaining of initial drug ([2]; 210 min): 39.3%
percent remaining of initial drug ([2]; 240 min): 35.4%
percent remaining of initial drug ([2]; 300 min): 32.4%
percent remaining of initial drug ([2]; 360 min): 28.8%
MTD at 30 days [3]: 4 mg/kg
IC50 [4]: 47.5 ± 11 nM
